Measurements as given in ChEMBL document CHEMBL1201862, “PubChem BioAssay data set” (2004).
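Grown in 96-well plates, cells were treated for 48 hours with each compound at five concentrations. Insufficient inhibition: endpoint recorded as highest concentration tested. The concentration for 50% growth inhibition is given as GI50.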 The source made the active and inactive calls. No stated cut-off is given here; in the data, active = GI50 up to about 1.1 µM and inactive = higher.

Assays:
Experiment in all cases: inhibition of tumour cell growth, NCI panel, 48 h
[1] = tested on: OVCAR-5
[2] = tested on: COLO 205
[3] = tested on: A498
[4] = tested on: SNB-19
[5] = tested on: SNB-75
[6] = tested on: SF-268
[7] = tested on: HCT-116
[8] = tested on: HCC 2998
[9] = tested on: NCI-H522
[10] = tested on: SN12C
[11] = tested on: HOP-92
[12] = tested on: OVCAR-4
[13] = tested on: UACC-257
[14] = tested on: A549
[15] = tested on: CCRF-CEM
[16] = tested on: CAKI-1
[17] = tested on: DU-145
[18] = tested on: PC-3
[19] = tested on: MDA-MB-435
[20] = tested on: MCF7

SMILES	GI50 [1]	GI50 [2]	GI50 [3]	GI50 [4]	GI50 [5]	GI50 [6]	GI50 [7]	GI50 [8]	GI50 [9]	GI50 [10]	GI50 [11]	GI50 [12]	GI50 [13]	GI50 [14]	GI50 [15]	GI50 [16]	GI50 [17]	GI50 [18]	GI50 [19]	GI50 [20]
CCc1cccc(C(C)C)c1NC(=O)C(=O)C(CC(=O)Nc1ccc(Cl)c(Cl)c1)C(=O)OC (stereo not drawn)	> 100 µM (inactive)	77.3 µM (inactive)	> 100 µM (inactive)	> 100 µM (inactive)	> 100 µM (inactive)	> 100 µM (inactive)	34.3 µM (inactive)	> 100 µM (inactive)	78.9 µM (inactive)	> 100 µM (inactive)	51.3 µM (inactive)	> 100 µM (inactive)	> 100 µM (inactive)	> 100 µM (inactive)	> 100 µM (inactive)	> 100 µM (inactive)				
CC(C)=CC1C(COC(=O)c2cc3c(cc2Cl)OCO3)C1(C)C (stereo not drawn)	60.4 µM (inactive)		31.5 µM (inactive)	95.7 µM (inactive)		19.3 µM (inactive)	33.4 µM (inactive)		18 µM (inactive)	39.5 µM (inactive)	23.8 µM (inactive)	28.4 µM (inactive)	40.3 µM (inactive)	34.2 µM (inactive)	26.9 µM (inactive)	22.7 µM (inactive)	28.4 µM (inactive)	35.5 µM (inactive)	28 µM (inactive)	
CCC(=O)C(CCN1CCC(N2C(=O)C(CCC#N)c3ccccc32)CC1)(c1ccccc1)c1ccccc1 (stereo not drawn)	22.3 µM (inactive)	8.97 µM (inactive)	23.2 µM (inactive)	17.2 µM (inactive)	12.9 µM (inactive)	16.1 µM (inactive)	4.9 µM (inactive)	12.4 µM (inactive)	12.7 µM (inactive)	18 µM (inactive)			13 µM (inactive)	14 µM (inactive)		21.9 µM (inactive)	12.2 µM (inactive)	18.5 µM (inactive)	4.85 µM (inactive)	11.5 µM (inactive)
O=C(O)C1C(=O)Oc2c(cccc2[N+](=O)[O-])C1O (stereo not drawn)	> 100 µM (inactive)	> 100 µM (inactive)	> 100 µM (inactive)	> 100 µM (inactive)	> 100 µM (inactive)	> 100 µM (inactive)	> 100 µM (inactive)	> 100 µM (inactive)	> 100 µM (inactive)	> 100 µM (inactive)	> 100 µM (inactive)	> 100 µM (inactive)	> 100 µM (inactive)	> 100 µM (inactive)	> 100 µM (inactive)	> 100 µM (inactive)	> 100 µM (inactive)	> 100 µM (inactive)	> 100 µM (inactive)	
Cc1ccccc1NC(=O)/C(C#N)=N\Nc1[nH]cnc1C(N)=O	40.3 µM (inactive)	21.9 µM (inactive)		> 100 µM (inactive)	54.5 µM (inactive)	4.11 µM (inactive)	4.37 µM (inactive)	2.92 µM (inactive)	18 µM (inactive)	5 µM (inactive)		34.1 µM (inactive)	15.2 µM (inactive)	> 100 µM (inactive)	2.96 µM (inactive)	2.59 µM (inactive)	2.79 µM (inactive)	4.44 µM (inactive)	4.68 µM (inactive)	21.6 µM (inactive)
S=C(NN=C1NCCCCN1)Nc1ccc(Cl)cc1	14.8 µM (inactive)	13.1 µM (inactive)	33 µM (inactive)	77.6 µM (inactive)	23.8 µM (inactive)	14.4 µM (inactive)	7.52 µM (inactive)	18.1 µM (inactive)	12.9 µM (inactive)		29.8 µM (inactive)	38.9 µM (inactive)	14.8 µM (inactive)	11.8 µM (inactive)	4.48 µM (inactive)	< 0.01 µM (active)		13.9 µM (inactive)	22.9 µM (inactive)	34 µM (inactive)
CC(=O)OC[C@H]1O[C@@H](O[C@H]2[C@H](OC(C)=O)C=CO[C@@H]2COC(C)=O)C(OC(C)=O)[C@H]2OC(C)(C)O[C@H]21 (stereo partly drawn)	> 100 µM (inactive)	> 100 µM (inactive)		> 100 µM (inactive)	30.5 µM (inactive)	> 100 µM (inactive)	> 100 µM (inactive)	> 100 µM (inactive)	17.1 µM (inactive)	> 100 µM (inactive)	52.8 µM (inactive)	> 100 µM (inactive)	> 100 µM (inactive)	> 100 µM (inactive)	62.8 µM (inactive)	> 100 µM (inactive)		> 100 µM (inactive)	48.1 µM (inactive)	> 100 µM (inactive)
CC[C@@H](C(=O)[C@@H](C)[C@@H](O)[C@H](C)CCc1ccc(C)c(O)c1C(=O)O)[C@H]1O[C@](CC)([C@H]2CC[C@](O)(CC)[C@H](C)O2)C[C@@H]1C [LASALOCID A SODIUM]	6.47 µM (inactive)	1.1 µM (active)	0.573 µM (active)	1.3 µM (inactive)	0.92 µM (active)	2.21 µM (inactive)	1.48 µM (inactive)	1.05 µM (active)	1.01 µM (active)	1.91 µM (inactive)	1.69 µM (inactive)	3.23 µM (inactive)	2.99 µM (inactive)	2.06 µM (inactive)	0.695 µM (active)	1.84 µM (inactive)				
